According to US4690930A, “Pyrazolo[4,3-c]quinoline-3-one and imidazo[4,3-c]cinnolin-3-one derivatives and their use as psychotropic agents” (Shionogi & Co., Ltd, priority 1984, dated 1987):

The compounds below were run against benzodiazepine receptor (assay: Binding test to benzodiazepine receptor (inhibition of specific binding of tritium labeled diazepam)). Settings: 2 nM tritium labeled diazepam, rat cerebral cortex, 0° C., 60 minutes; Ki calculated from IC50.
Set-up: species or system Wistar rats (cerebral cortex)
Description: Binding test to benzodiazepine receptor
This test was carried out in the modified method of Moeler & Okada, Science, 198, 849-851 (1977).
Receptor preparation was provided from the cerebral cortex of Wistar rats (male, 11 to 13 weeks age). Inhibitory action of the test compound on the specific binding of tritium labeled diazepam to the receptor was evaluated as follows. 2 nM tritium labeled diazepam and an aqueous solution of the test compound at 5 or 6 concentrations were incubated with the receptor preparation at 0° C. for 60 minutes. The 50% inhibitory concentration (IC50) was measured by the concentration-response curve.
The inhibitory constant (Ki) was calculated according to the following equation, in which Kd is the dissociation constant of the tritium labeled diazepam and L is the concentration of the labeled ligand. [formula]
With `Cc1ccc2c3nn(-c4csc(C)c4)c(=O)c-3c[nH]c2c1` [Ic2 -8] the Ki was 1.24 nM. `CCc1ccc(-n2nc3c4ccccc4[nH]cc-3c2=O)s1` [Ic1 -2] was tested, and the Ki was 1.51 nM. For `O=c1c2c[nH]c3ccccc3c-2nn1-c1ccsc1` [Ic2 -1, 2-(3-Thienyl)-2,5-dihydro-3H-pyrazolo[4,3-c]quinolin-3-one], the Ki was 0.29 nM. For `Cc1ccc(-n2nc3c4cc(Cl)ccc4[nH]cc-3c2=O)s1` [Ic1 -8], the Ki was 0.31 nM. `Cc1cc(-n2nc3c4ccc(Cl)cc4[nH]cc-3c2=O)cs1` [Ic2 -9] showed a Ki of 0.96 nM. `Cc1cc(-n2nc3c4cc(F)ccc4[nH]cc-3c2=O)cs1` [Ic2 -7] was tested, and the Ki was 0.17 nM. Compound `Cc1csc(-n2nc3c4ccccc4[nH]cc-3c2=O)c1` [Ic1 -12] has a Ki of 0.38 nM. With `Cc1ccc(-n2nc3c4ccc(Cl)cc4[nH]cc-3c2=O)s1` [Ic1 -11] the Ki was 1.11 nM. `Cc1cc(-n2nc3c4cc(Cl)ccc4[nH]cc-3c2=O)cs1` [Ic2 -6] showed a Ki of 0.58 nM. Work on `Cc1ccc2[nH]cc3c(=O)n(-c4ccc(C)s4)nc-3c2c1` [Ic1 -6] yielded a Ki of 0.22 nM. `COc1ccc2[nH]cc3c(=O)n(-c4csc(C)c4)nc-3c2c1` [Ic2 -5, 2-[3-(5-methylthienyl)]-8-methoxy-2,5-dihydro-3H-pyrazolo[4,3-c]quinolin-3-one] showed a Ki of 0.39 nM. `CCCCc1ccc(-n2nc3c4ccccc4[nH]cc-3c2=O)s1` [Ic1 -5] showed a Ki of 1.53 nM. `Cc1ccc(-n2nc3c4ccccc4[nH]cc-3c2=O)s1` [Ic1 -1, 2-[2-(5-Methylthienyl)]-2,5-dihydro-3H-pyrazolo[4,3-c]quinolin-3-one] showed a Ki of 0.35 nM. In the case of `Cc1ccc2[nH]cc3c(=O)n(-c4csc(C)c4)nc-3c2c1` [Ic2 -4], the Ki is reported as 0.3 nM. For `Cc1ccc2c3nn(-c4ccc(C)s4)c(=O)c-3c[nH]c2c1` [Ic1 -10], the Ki was 1.44 nM. `Cc1ccc(-n2nc3c4cc(F)ccc4[nH]cc-3c2=O)s1` [Ic1 -9] gave a Ki of 0.14 nM. In the case of `COc1ccc2[nH]cc3c(=O)n(-c4ccc(C)s4)nc-3c2c1` [Ic1 -7], the Ki is reported as 0.17 nM. With `Cc1cc(-n2nc3c4ccccc4[nH]cc-3c2=O)sc1C` [Ic1 -3] the Ki was 0.63 nM. `Cc1cc(-n2nc3c4ccccc4[nH]cc-3c2=O)cs1` [Ic2 -2, 2-[3-(5-methylthienyl)]-2,5-dihydro-3H-pyrazolo[4,3-c]quinolin-3-one] showed a Ki of 0.45 nM.

What follows are compounds tested on male mice (assay: Inverse agonist activity (oral compound 1 hour before subcutaneous pentylenetetrazol, mice)). Settings: Mus musculus, 1 hour before s.c. 75 mg/kg pentylenetetrazol (subconvulsive dose), 8-16 male mice a group, Probit method, read-out: ED50 (dose at which 50% of mice died).
Assay type: in vivo
Description: Inverse agonist activity was evaluated by the following procedure.
The test compound was administered orally to 8-16 male mice a group, 1 hour before a subcutaneous administration of 75 mg/kg of pentylenetetrazol (a subconvulsive dose). The dose (ED50) at which 50% of mice died, was calculated by the Probit method.
Work on `O=c1c2c[nH]c3ccccc3c-2nn1-c1nccs1` [Control 2, reference compound] yielded an ED50 of 87 mg/kg. `Cc1cc(-n2nc3c4ccccc4[nH]cc-3c2=O)cs1` [Ic2 -2, 2-[3-(5-methylthienyl)]-2,5-dihydro-3H-pyrazolo[4,3-c]quinolin-3-one] gave an ED50 of 1.67 mg/kg.
